# According to ChEMBL document CHEMBL4842346, “Improving the metabolic stability of antifungal compounds based on a scaffold hopping strategy: Design, synthesis, and structure-activity relationship studies of dihydrooxazole derivatives” (Eur J Med Chem, 2021):
# Tests used:
# [1] = Intrinsic microsomal clearance in human liver microsomes at 100 uM in the presence of NADPH measured up to 60 mins by LC-MS/MS analysis; type: ADME, Microsome; conditions: read-out: CLH
# Candida albicans [2] = assay: Antifungal activity against Candida albicans GIM2.194 assessed as inhibition of fungal growth by NCCLS protocol based method; type: functional
# [3] = Tmax in Sprague-Dawley rat at 10 mg/kg, po measured up to 24 hrs by LC-MS/MS analysis; type: ADME, organism-based; conditions: in vivo
# Candida albicans [4] = assay: Antifungal activity against fluconazole and itraconazole resistant Candida albicans 17# assessed as inhibition of fungal growth by NCCLS protocol based method; type: functional
# Candida parapsilosis = assay: Antifungal activity against Candida parapsilosis GIM2.190 assessed as inhibition of fungal growth by NCCLS protocol based method; type: functional; conditions: Lodderomyces parapsilosis
# Candida albicans [5] = assay: Antifungal activity against fluconazole resistant Candida albicans CaR assessed as inhibition of fungal growth by NCCLS protocol based method; type: functional
# [6] = Half life in Sprague-Dawley rat at 2 mg/kg, iv measured up to 24 hrs by LC-MS/MS analysis; type: ADME, organism-based; conditions: in vivo
# Pichia kudriavzevii = assay: Antifungal activity against Candida krusei GIM2.1 assessed as inhibition of fungal growth by NCCLS protocol based method; type: functional
# [7] = Cmax in Sprague-Dawley rat at 10 mg/kg, po measured up to 24 hrs by LC-MS/MS analysis; type: ADME, organism-based; design: route oral, dose 10 mg/kg, time <=24; conditions: in vivo
# Aspergillus fumigatus = assay: Antifungal activity against Aspergillus fumigatus CGMCC3.7795 assessed as inhibition of fungal growth by NCCLS protocol based method; type: functional
# [8] = Metabolic stability in human liver microsomes assessed as compound remaining at 100 uM measured after 60 mins in the absence of NADPH by LC-MS/MS analysis; type: ADME, Microsome; conditions: read-out: Stabilty
# [9] = Metabolic stability in human plasma assessed as parent compound remaining at 100 uM measured after 60 mins by LC-MS/MS analysis; type: ADME, cell-free; conditions: read-out: Stabilty
# [10] = Metabolic stability in human liver microsomes assessed as compound remaining at 100 uM measured after 60 mins in the presence of NADPH by LC-MS/MS analysis; type: ADME, Microsome; conditions: read-out: Stabilty
# [11] = AUClast in Sprague-Dawley rat at 2 mg/kg, iv measured after 24 hrs by LC-MS/MS analysis; type: ADME, organism-based; design: route intravenous, dose 2 mg/kg, time 24 hrs; conditions: in vivo
# Cytochrome P450 2C19 = Cytochrome P450 2C19 (Homo sapiens, UniProt P33261); assay: Inhibition of CYP2C19 in human liver microsome incubated for 10 mins in the presence of NADPH by LC-MS/MS analysis; type: ADME, microsomes
# [12] = biological target: T1, Lanosterol 14-alpha demethylase (Candida albicans (strain SC5314 / ATCC MYA-2876) (Yeast), UniProt P10613); assay: Inhibition of Candida albicans CYP51 assessed as unknown sterol level at 0.015 ug/ml measured after 18 hrs by GC-MS analysis relative to control; design: scale not given: the % may be the effect or the level left; conditions: at 0.015 µg/mL
# [13] = biological target: T1, Lanosterol 14-alpha demethylase; assay: Inhibition of Candida albicans CYP51 assessed as lanosterol level at 0.015 ug/ml measured after 18 hrs by GC-MS analysis relative to control; design: scale not given: the % may be the effect or the level left; conditions: at 0.015 µg/mL
# Cytochrome P450 3A4 = Cytochrome P450 3A4 (Homo sapiens, UniProt P08684); assay: Inhibition of CYP3A4 in human liver microsome incubated for 10 mins in the presence of NADPH by LC-MS/MS analysis; type: ADME, microsomes
# Candida tropicalis = assay: Antifungal activity against Candida tropicalis GIM2.183 assessed as inhibition of fungal growth by NCCLS protocol based method; type: functional
# [14] = AUC (0-infinity) in Sprague-Dawley rat at 2 mg/kg, iv measured after 24 hrs by LC-MS/MS analysis; type: ADME, organism-based; design: route intravenous, dose 2 mg/kg, time 24 hrs; conditions: in vivo
# Cytochrome P450 2D6 = Cytochrome P450 2D6 (Homo sapiens, UniProt P10635); assay: Inhibition of CYP2D6 in human liver microsome incubated for 10 mins in the presence of NADPH by LC-MS/MS analysis; type: ADME, microsomes
# [15] = biological target: T1, Lanosterol 14-alpha demethylase; assay: Inhibition of Candida albicans CYP51 assessed as eburicol level at 0.015 ug/ml measured after 18 hrs by GC-MS analysis relative to control; design: scale not given: the % may be the effect or the level left; conditions: at 0.015 µg/mL
# [16] = Clearance in Sprague-Dawley rat at 2 mg/kg, iv measured after 24 hrs by LC-MS/MS analysis; type: ADME, organism-based; conditions: in vivo
# [17] = biological target: T1, Lanosterol 14-alpha demethylase; assay: Inhibition of Candida albicans CYP51 assessed as ergosterol level at 0.015 ug/ml measured after 18 hrs by GC-MS analysis relative to control; design: scale not given: the % may be the effect or the level left; conditions: at 0.015 µg/mL
# [18] = Metabolic stability in human liver microsomes assessed as half life at 100 uM in the presence of NADPH measured upto 60 mins by LC-MS/MS analysis; type: ADME, Microsome
# [19] = Volume of distribution at steady state in Sprague-Dawley rat at 2 mg/kg, iv measured after 24 hrs by LC-MS/MS analysis; type: ADME, organism-based; conditions: in vivo, read-out: Vdss
# [20] = Metabolic stability in human plasma assessed as parent compound remaining at 100 uM measured after 120 mins by LC-MS/MS analysis; type: ADME, cell-free; conditions: 2 h
# Cytochrome P450 2C9 = Cytochrome P450 2C9 (Homo sapiens, UniProt P11712); assay: Inhibition of CYP2C9 in human liver microsome incubated for 10 mins in the presence of NADPH by LC-MS/MS analysis; type: ADME, microsomes
# Cytochrome P450 1A2 = biological target: T2, Cytochrome P450 1A2 (Homo sapiens, UniProt P05177); assay: Inhibition of CYP1A2 in human liver microsome incubated for 10 mins in the presence of NADPH by LC-MS/MS analysis; type: ADME, microsomes
# T2 sequence (P05177 whole entry): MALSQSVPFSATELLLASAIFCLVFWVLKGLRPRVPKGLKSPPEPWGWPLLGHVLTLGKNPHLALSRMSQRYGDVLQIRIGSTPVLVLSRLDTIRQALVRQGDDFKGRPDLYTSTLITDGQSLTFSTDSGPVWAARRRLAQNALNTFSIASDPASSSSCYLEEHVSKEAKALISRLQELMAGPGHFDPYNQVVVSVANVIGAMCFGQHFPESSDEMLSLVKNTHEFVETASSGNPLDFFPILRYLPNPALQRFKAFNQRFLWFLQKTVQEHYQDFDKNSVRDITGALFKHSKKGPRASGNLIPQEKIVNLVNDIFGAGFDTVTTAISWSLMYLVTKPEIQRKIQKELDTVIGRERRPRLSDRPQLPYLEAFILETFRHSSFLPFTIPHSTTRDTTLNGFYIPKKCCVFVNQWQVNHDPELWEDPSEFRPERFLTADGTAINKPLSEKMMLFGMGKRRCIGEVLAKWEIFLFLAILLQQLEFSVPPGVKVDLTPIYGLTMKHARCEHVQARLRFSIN
# [21] = biological target: T1, Lanosterol 14-alpha demethylase; assay: Inhibition of Candida albicans CYP51 assessed as 14alpha-methylergosta-8,24(28)-dien3beta-6alpha-diol level at 0.015 ug/ml measured after 18 hrs by GC-MS analysis relative to control; design: scale not given: the % may be the effect or the level left; conditions: at 0.015 µg/mL
# [22] = Metabolic stability in human plasma assessed as half life at 100 uM measured after 60 mins by LC-MS/MS analysis; type: ADME, cell-free
# [23] = AUClast in Sprague-Dawley rat at 10 mg/kg, po measured after 24 hrs by LC-MS/MS analysis; type: ADME, organism-based; design: route oral, time 24 hrs, dose 10 mg/kg; conditions: in vivo
# [24] = Oral bioavailability in Sprague-Dawley rat at 10 mg/kg measured after 24 hrs by LC-MS/MS analysis; type: ADME, organism-based; conditions: in vivo
# Candida albicans [25] = assay: Antifungal activity against Candida albicans SC5314 assessed as inhibition of fungal growth by NCCLS protocol based method; type: functional
# [26] = Initial plasma concentration in Sprague-Dawley rat at 2 mg/kg, iv by LC-MS/MS analysis; type: ADME, organism-based
# [27] = biological target: T1, Lanosterol 14-alpha demethylase; assay: Inhibition of Candida albicans CYP51 assessed as unknown sterol level at 0.25 ug/ml measured after 18 hrs by GC-MS analysis relative to control; design: scale not given: the % may be the effect or the level left; conditions: at 0.25 µg/mL
# [28] = biological target: T1, Lanosterol 14-alpha demethylase; assay: Inhibition of Candida albicans CYP51 assessed as ergosterol level at 0.25 ug/ml measured after 18 hrs by GC-MS analysis relative to control; design: scale not given: the % may be the effect or the level left; conditions: at 0.25 µg/mL
# Cryptococcus neoformans [29] = assay: Antifungal activity against Cryptococcus neoformans GIM2.209 assessed as inhibition of fungal growth by NCCLS protocol based method; type: functional
# Candida albicans [30] = assay: Antifungal activity against Candida albicans CPCC400523 assessed as inhibition of fungal growth by NCCLS protocol based method; type: functional
# [31] = biological target: T1, Lanosterol 14-alpha demethylase; assay: Inhibition of Candida albicans CYP51 assessed as eburicol level at 0.25 ug/ml measured after 18 hrs by GC-MS analysis relative to control; design: scale not given: the % may be the effect or the level left; conditions: at 0.25 µg/mL
# [32] = biological target: T1, Lanosterol 14-alpha demethylase; assay: Inhibition of Candida albicans CYP51 assessed as 14alpha-methylergosta-8,24(28)-dien3beta-6alpha-diol level at 0.25 ug/ml measured after 18 hrs by GC-MS analysis relative to control; design: scale not given: the % may be the effect or the level left; conditions: at 0.25 µg/mL
# Cryptococcus neoformans [33] = assay: Antifungal activity against Cryptococcus neoformans CGMCC2.3161 assessed as inhibition of fungal growth by NCCLS protocol based method; type: functional
# [34] = biological target: T1, Lanosterol 14-alpha demethylase; assay: Inhibition of Candida albicans CYP51 assessed as lanosterol level at 0.25 ug/ml measured after 18 hrs by GC-MS analysis relative to control; design: scale not given: the % may be the effect or the level left; conditions: at 0.25 µg/mL
# T1 sequence (P10613 whole entry): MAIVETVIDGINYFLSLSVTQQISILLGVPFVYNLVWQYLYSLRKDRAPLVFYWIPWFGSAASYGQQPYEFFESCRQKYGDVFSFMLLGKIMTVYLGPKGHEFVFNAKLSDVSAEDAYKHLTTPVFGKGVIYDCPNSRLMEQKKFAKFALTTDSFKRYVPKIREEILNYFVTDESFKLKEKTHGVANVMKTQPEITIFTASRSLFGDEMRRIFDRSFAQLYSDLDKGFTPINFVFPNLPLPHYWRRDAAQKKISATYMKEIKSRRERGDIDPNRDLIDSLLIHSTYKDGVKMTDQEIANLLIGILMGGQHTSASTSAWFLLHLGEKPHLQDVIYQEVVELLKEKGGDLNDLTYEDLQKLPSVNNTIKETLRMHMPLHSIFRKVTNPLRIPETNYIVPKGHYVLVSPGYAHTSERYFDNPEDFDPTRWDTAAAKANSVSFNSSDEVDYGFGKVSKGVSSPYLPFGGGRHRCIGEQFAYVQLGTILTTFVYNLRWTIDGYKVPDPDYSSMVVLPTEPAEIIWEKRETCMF
# Sequence of Cytochrome P450 3A4 (P08684 whole entry): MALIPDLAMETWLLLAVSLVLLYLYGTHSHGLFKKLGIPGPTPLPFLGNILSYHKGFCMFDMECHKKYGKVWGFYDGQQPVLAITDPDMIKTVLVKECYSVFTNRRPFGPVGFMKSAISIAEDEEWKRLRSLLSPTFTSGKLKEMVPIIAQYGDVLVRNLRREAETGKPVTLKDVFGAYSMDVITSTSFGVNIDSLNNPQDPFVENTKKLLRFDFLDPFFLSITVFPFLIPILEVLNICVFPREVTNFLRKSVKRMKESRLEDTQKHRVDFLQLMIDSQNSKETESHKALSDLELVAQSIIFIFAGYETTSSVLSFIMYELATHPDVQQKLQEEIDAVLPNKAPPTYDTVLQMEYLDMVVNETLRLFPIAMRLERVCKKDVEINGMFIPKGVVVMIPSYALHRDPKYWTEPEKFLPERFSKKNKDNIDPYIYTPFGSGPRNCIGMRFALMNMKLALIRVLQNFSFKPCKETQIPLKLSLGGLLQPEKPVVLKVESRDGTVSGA
# Sequence of Cytochrome P450 2D6 (P10635 whole entry): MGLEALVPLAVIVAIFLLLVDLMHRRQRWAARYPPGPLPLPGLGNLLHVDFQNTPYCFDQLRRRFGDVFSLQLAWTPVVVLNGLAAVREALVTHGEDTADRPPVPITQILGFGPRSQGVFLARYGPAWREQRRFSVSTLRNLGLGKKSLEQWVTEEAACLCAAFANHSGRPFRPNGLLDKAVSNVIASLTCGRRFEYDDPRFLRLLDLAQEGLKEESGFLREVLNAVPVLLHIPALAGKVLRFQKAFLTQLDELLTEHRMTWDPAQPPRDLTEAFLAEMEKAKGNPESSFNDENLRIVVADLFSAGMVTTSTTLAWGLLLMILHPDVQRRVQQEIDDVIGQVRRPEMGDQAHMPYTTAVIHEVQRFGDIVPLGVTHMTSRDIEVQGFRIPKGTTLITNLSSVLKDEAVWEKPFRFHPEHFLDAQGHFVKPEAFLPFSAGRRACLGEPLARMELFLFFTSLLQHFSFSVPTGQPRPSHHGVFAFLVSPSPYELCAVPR
# Sequence of Cytochrome P450 2C19 (P33261 whole entry): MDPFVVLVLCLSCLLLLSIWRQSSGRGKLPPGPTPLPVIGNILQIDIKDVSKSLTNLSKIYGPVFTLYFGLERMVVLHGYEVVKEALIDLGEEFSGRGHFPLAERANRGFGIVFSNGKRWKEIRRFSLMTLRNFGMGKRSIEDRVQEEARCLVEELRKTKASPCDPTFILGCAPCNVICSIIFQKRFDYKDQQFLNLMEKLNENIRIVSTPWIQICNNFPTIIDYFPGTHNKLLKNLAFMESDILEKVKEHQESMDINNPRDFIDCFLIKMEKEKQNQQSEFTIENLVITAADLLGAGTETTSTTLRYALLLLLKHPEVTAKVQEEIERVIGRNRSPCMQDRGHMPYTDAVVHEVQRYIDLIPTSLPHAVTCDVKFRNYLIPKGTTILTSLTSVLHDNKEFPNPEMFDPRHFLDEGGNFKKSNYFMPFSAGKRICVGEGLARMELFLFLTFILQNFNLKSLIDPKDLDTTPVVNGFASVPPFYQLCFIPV
# Sequence of Cytochrome P450 2C9 (P11712 whole entry): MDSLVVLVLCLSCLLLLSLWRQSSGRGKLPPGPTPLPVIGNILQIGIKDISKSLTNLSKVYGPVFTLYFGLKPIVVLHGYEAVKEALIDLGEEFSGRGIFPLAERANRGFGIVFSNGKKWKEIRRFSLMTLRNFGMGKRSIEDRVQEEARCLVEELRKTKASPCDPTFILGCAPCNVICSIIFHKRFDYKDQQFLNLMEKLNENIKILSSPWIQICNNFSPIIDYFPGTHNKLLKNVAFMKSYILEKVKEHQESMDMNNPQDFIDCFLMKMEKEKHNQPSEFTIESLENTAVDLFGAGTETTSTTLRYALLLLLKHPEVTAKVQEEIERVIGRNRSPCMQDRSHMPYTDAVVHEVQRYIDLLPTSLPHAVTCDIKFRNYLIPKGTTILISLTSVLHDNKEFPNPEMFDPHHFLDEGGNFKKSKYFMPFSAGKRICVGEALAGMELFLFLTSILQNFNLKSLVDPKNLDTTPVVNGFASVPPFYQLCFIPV
structure (smiles),measurement,setting,value
Fc1ccc(C2(Cn3cncn3)COC(c3ccc(-c4ccccc4F)cc3)=N2)cc1 (stereo unspecified),microsomal CLint at 100 µM,[1],< 9.6 µL/min/mg
same,MIC,Candida albicans [2],< 0.03 µg/mL
same,Tmax,[3],5.33 h
same,MIC,Candida albicans [4],> 64 µg/mL
same,MIC,Candida parapsilosis,8 µg/mL
same,MIC,Candida albicans [5],0.25 µg/mL
same,half-life,[6],9.35 h
same,MIC,Pichia kudriavzevii,0.25 µg/mL
same,Cmax,[7],754 ng/mL
same,MIC,Aspergillus fumigatus,> 64 µg/mL
same,"remaining at 1 h, 100 µM",[8],89.6%
same,"remaining at 1 h, 100 µM",[9],95.3%
same,"remaining at 1 h, 100 µM",[10],75.4%
same,AUC(0-t) at 24 h,[11],2690 ng·h/mL
same,IC50,Cytochrome P450 2C19,1.56 µM
same,Activity,[12],1.97%
same,Activity,[13],18.89%
same,IC50,Cytochrome P450 3A4,14.8 µM
same,MIC,Candida tropicalis,0.06 µg/mL
same,AUC(0-inf),[14],3130 ng·h/mL
same,IC50,Cytochrome P450 2D6,> 50 µM
same,Activity,[15],5.08%
same,clearance,[16],10.8 mL/min/kg
same,Activity,[17],38.82%
same,half-life at 100 µM,[18],> 2.42 h
same,Vd,[19],7.18 L/kg
same,Stabilty,[20],120.4%
same,IC50,Cytochrome P450 2C9,2.3 µM
same,IC50,Cytochrome P450 1A2,6.64 µM
same,Activity,[21],32.74%
same,half-life at 100 µM,[22],> 4.8 h
same,AUC(0-t) at 24 h,[23],10400 ng·h/mL
same,bioavailability,[24],77.7%
same,MIC,Candida albicans [25],< 0.03 µg/mL
same,C0,[26],758 ng/mL
OC(Cn1cncn1)(Cn1cncn1)c1ccc(F)cc1F [FLUCONAZOLE],MIC,Candida albicans [2],1 µg/mL
same,Activity,[27],1.91%
same,MIC,Candida albicans [4],> 64 µg/mL
same,MIC,Candida parapsilosis,2 µg/mL
same,MIC,Candida albicans [5],> 64 µg/mL
same,MIC,Pichia kudriavzevii,8 µg/mL
same,MIC,Aspergillus fumigatus,> 64 µg/mL
same,Activity,[28],34.27%
same,MIC,Cryptococcus neoformans [29],4 µg/mL
same,MIC,Candida tropicalis,1 µg/mL
same,MIC,Candida albicans [30],1 µg/mL
same,Activity,[31],7.57%
same,Activity,[32],30.66%
same,MIC,Cryptococcus neoformans [33],4 µg/mL
same,Activity,[34],15.13%
same,MIC,Candida albicans [25],0.5 µg/mL
